# According to patent publication US7576241B2, “Derivatives of amidines, their preparation, their use as medicaments and the pharmaceutical compositions containing them” (Ipsen Pharma S.A.S., priority 1998, dated 2009):
row,Structure (SMILES),melting point
1,"NC(=Nc1ccc(CCNC(=O)/C=C/c2ccccc2O)cc1)c1cccs1 [Example 39, (E)-N-(4-{[amino(2-thienyl)methylidene]amino}phenethyl)-3-(2-hydroxyphenyl)-2-propenamide]",145 to 155 °C
2,"COc1cc(/C=C/C(=O)NCCc2ccc(N=C(N)c3cccs3)cc2)cc(OC)c1O [Example 42, (E)-N-(4-{[amino(2-thienyl)methylidene]amino}phenethyl)-3-(4-hydroxy-3,5-dimethoxyphenyl)-2-propenamide]",196.4 to 197.6 °C
3,"CC(=O)Nc1ccc(CNCCc2ccc(N=C(N)c3cccs3)cc2)cc1 [Example 58, N-(4-{[(4-{[amino(2-thienyl)methylidene]amino}phenethyl)-amino]methyl}phenyl)acetamide]",237.8 to 239 °C
4,"NC(=Nc1ccc(CCNCc2ccc3cccc(O)c3n2)cc1)c1cccs1 [Example 59, N′-[4-(2-{[(8-hydroxy-2-quinolinyl)methyl]amino}ethyl)phenyl]-2-thiophenecarboximidamide]",> 230 °C
5,"I.NC(=Nc1ccc(CCNCC=Cc2ccccc2)cc1)c1cccs1 [Example 60, N′-[4-(2-{[3-phenyl-2-propenyl]amino}ethyl)phenyl]-2-thiophenecarboximidamide hydroiodide]",151 to 153 °C
6,"COc1cc(C=CCNCCc2ccc(N=C(N)c3cccs3)cc2)ccc1O.O=C(O)/C=C/C(=O)O.O=C(O)/C=C/C(=O)O [Example 61, N′-[4-(2-{[3-(4-hydroxy-3-methoxyphenyl)-2-propenyl]amino}ethyl)phenyl]-2-thiophenecarboximidamide difumarate]",174 to 176 °C
7,"COc1cc(C=CCNCCc2ccc(N=C(N)c3cccs3)cc2)cc(OC)c1O.Cl.Cl [Example 62, N′-[4-(2-{[3-(4-hydroxy-3,5-dimethoxyphenyl)-2-propenyl]amino}ethyl)phenyl]-2-thiophenecarboximidamide dihydrochloride]",182 to 184 °C
8,"COc1cc(O)c(CNCCc2ccc(N=C(N)c3cccs3)cc2)c(OC)c1 [Example 64, N′-(4-{2-[(2-hydroxy-4,6-dimethoxybenzyl)amino]ethyl}phenyl)-2-thiophenecarboximidamide]",> 230 °C
